Laboratory results published in US20260355196A1, “INHIBITORS AND DEGRADERS OF PIP4K PROTEIN” (Larkspur Biosciences, Inc., priority 2023, published 2026).

Target: T1, PIP4K2C (Homo sapiens, UniProt Q8TBX8)
T1 sequence (Q8TBX8 1-421): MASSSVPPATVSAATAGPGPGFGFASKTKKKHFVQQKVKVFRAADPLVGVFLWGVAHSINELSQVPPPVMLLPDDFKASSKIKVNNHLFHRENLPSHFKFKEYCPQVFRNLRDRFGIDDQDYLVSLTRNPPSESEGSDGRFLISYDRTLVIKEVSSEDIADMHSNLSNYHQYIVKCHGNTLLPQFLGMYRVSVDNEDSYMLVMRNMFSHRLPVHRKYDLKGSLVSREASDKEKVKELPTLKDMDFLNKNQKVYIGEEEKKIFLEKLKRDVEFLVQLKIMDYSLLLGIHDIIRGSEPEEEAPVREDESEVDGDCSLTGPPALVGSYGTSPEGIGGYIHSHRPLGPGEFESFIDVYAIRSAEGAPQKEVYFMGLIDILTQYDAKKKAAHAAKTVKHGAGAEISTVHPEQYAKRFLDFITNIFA
Test: HiBiT PIP4K2C degradation assay in MOLT-4 cells (endogenous PIP4K2C C-terminally tagged with HiBiT)
Format: cell-based
Set-up: untagged in primary human PBMCs and monocyte-derived dendritic cells
Settings: 6 hours of incubation time, rather than 24 hours; MOLT-4, top concentration 10 micromolar; read-out: HiBIT-degradation MOLT4 PIP4k2C DC50 (6 hours, marked *)
Method in brief: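 Cells are plated onto compound dilutions (10 points, 3-fold, top 10 micromolar) and incubated 24 or 6 hours at 37 C. Lytic HiBiT detection then quantifies tagged endogenous PIP4K2C in MOLT-4, and a Hill fit yields DC50.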

DC50 [µM] | Structure (SMILES)
> 5 | O=C1CCC(Nc2ccc(N3CCN(CC4(O)CCN(C(=O)[C@H]5CC[C@H](Nc6ncc(F)c(-c7cccc(-c8ccc[nH]c8=O)c7)n6)CC5)CC4)CC3)c(F)c2)C(=O)N1 (stereo partly drawn) [Compound 584, trans-3-((3-fluoro-4-(4-((1-(4-((5-fluoro-4-(3-(2-oxo-1,2-dihydropyridin-3-yl)phenyl)pyrimidin-2-yl)amino)cyclohexane-1-carbonyl)-4-hydroxypiperidin-4-yl)methyl)piperazin-1-yl)phenyl)amino)piperidine-2,6-dione]
< 0.5 | O=C1CCC(Nc2ccc(N3CCC(N4CCC(C(=O)N[C@H]5CC[C@H](Nc6ncc(F)c(-c7cccc(N8CCOCC8=O)c7)n6)CC5)CC4)CC3)c(F)c2)C(=O)N1 (stereo partly drawn) [Compound 585, trans-1′-(4-((2,6-dioxopiperidin-3-yl)amino)-2-fluorophenyl)-N-(4-((5-fluoro-4-(3-(3-oxomorpholino)phenyl)pyrimidin-2-yl)amino)cyclohexyl)-[1,4′-bipiperidine]-4-carboxamide]
< 0.5 | O=C1CCC(Nc2ccc(N3CCC(N4CCC(C(=O)N[C@H]5CC[C@H](Nc6ncc(F)c(-c7cccc(N8CCCCC8=O)c7)n6)CC5)CC4)CC3)c(F)c2)C(=O)N1 (stereo partly drawn) [Compound 587, 1′-(4-((2,6-dioxopiperidin-3-yl)amino)-2-fluorophenyl)-N-(trans-4-((5-fluoro-4-(3-(2-oxopiperidin-1-yl)phenyl)pyrimidin-2-yl)amino)cyclohexyl)-[1,4′-bipiperidine]-4-carboxamide]
< 0.5 | O=C1CCC(Nc2ccc(N3CCN(CC4(O)CCN(C(=O)[C@H]5CC[C@H](Nc6ncc(F)c(-c7cccc(N8CCOCC8=O)c7)n6)CC5)CC4)CC3)c(F)c2)C(=O)N1 (some centres unmarked) [Compound 588]
< 0.5 | O=C1CCC(Nc2ccc(C3CCN(C[C@H]4CC[C@H](CNC(=O)[C@H]5CC[C@H](Nc6ncc(F)c(-c7cccc(N8CCOCC8=O)c7)n6)CC5)CC4)CC3)c(F)c2)C(=O)N1 (stereo partly drawn) [Compound 589, trans-(1r,4R)—N-(((1r,4R)-4-((4-(4-((2,6-dioxopiperidin-3-yl)amino)-2-fluorophenyl)piperidin-1-yl)methyl)cyclohexyl)methyl)-4-((5-fluoro-4-(3-(3-oxomorpholino)phenyl)pyrimidin-2-yl)amino)cyclohexane-1-carboxamide]
< 0.5 | O=C1CCC(Nc2ccc(N3CCN(C[C@H]4CC[C@H](CNC(=O)[C@H]5CC[C@H](Nc6ncc(F)c(-c7cccc(N8CCCCC8=O)c7)n6)CC5)CC4)CC3)c(F)c2)C(=O)N1 (stereo partly drawn) [Compound 590, trans-(1r,4R)—N-(((1r,4R)-4-((4-(4-((2,6-dioxopiperidin-3-yl)amino)-2-fluorophenyl)piperazin-1-yl)methyl)cyclohexyl)methyl)-4-((5-fluoro-4-(3-(2-oxopiperidin-1-yl)phenyl)pyrimidin-2-yl)amino)cyclohexane-1-carboxamide]
< 0.5 | O=C1CCC(Nc2ccc(N3CCN(C[C@H]4CC[C@H](CNC(=O)[C@H]5CC[C@H](Nc6ncc(F)c(-c7cccc(N8CCCOC8=O)c7)n6)CC5)CC4)CC3)c(F)c2)C(=O)N1 (stereo partly drawn) [Compound 591, trans-(1r,4R)—N-(((1r,4R)-4-((4-(4-((2,6-dioxopiperidin-3-yl)amino)-2-fluorophenyl)piperazin-1-yl)methyl)cyclohexyl)methyl)-4-((5-fluoro-4-(3-(2-oxo-1,3-oxazinan-3-yl)phenyl)pyrimidin-2-yl)amino)cyclohexane-1-carboxamide]
< 0.5 | O=C1CCC(Nc2ccc(N3CCC(N4CCC(C(=O)N[C@H]5CC[C@H](Nc6ncc(F)c(-c7cccc(N8CCOC8=O)c7)n6)CC5)CC4)CC3)c(F)c2)C(=O)N1 (stereo partly drawn) [Compound 596, trans-1′-(4-((2,6-dioxopiperidin-3-yl)amino)-2-fluorophenyl)-N-(4-((5-fluoro-4-(3-(2-oxooxazolidin-3-yl)phenyl)pyrimidin-2-yl)amino)cyclohexyl)-[1,4′-bipiperidine]-4-carboxamide]
< 0.5 | O=C1CCC(Nc2ccc(N3CCC(N4CCC(C(=O)N[C@H]5CC[C@H](Nc6ncc(F)c(-c7cccc(N8CCCOC8=O)c7)n6)CC5)CC4)CC3)c(F)c2)C(=O)N1 (stereo partly drawn) [Compound 597, trans-1′-(4-((2,6-dioxopiperidin-3-yl)amino)-2-fluorophenyl)-N-(4-((5-fluoro-4-(3-(2-oxo-1,3-oxazinan-3-yl)phenyl)pyrimidin-2-yl)amino)cyclohexyl)-[1,4′-bipiperidine]-4-carboxamide]
< 0.5 | O=C1CCC(Nc2ccc(N3CCC(N4CCC(C(=O)N[C@H]5CC[C@H](Nc6ncc(F)c(-c7cccc(-n8ccccc8=O)c7)n6)CC5)CC4)C(F)(F)C3)c(F)c2)C(=O)N1 (stereo partly drawn) [Compound 598, trans-1′-(4-((2,6-dioxopiperidin-3-yl)amino)-2-fluorophenyl)-3′,3′-difluoro-N-(4-((5-fluoro-4-(3-(2-oxopyridin-1(2H)-yl)phenyl)pyrimidin-2-yl)amino)cyclohexyl)-[1,4′-bipiperidine]-4-carboxamide]
< 0.5 | O=C1CCC(Nc2ccc(N3CCC(N4CCC(C(=O)N[C@H]5CC[C@H](Nc6ncc(F)c(-c7cccc(-c8ccc[nH]c8=O)c7)n6)CC5)CC4)C(F)(F)C3)c(F)c2)C(=O)N1 (stereo partly drawn) [Compound 599, 1′-(4-((2,6-dioxopiperidin-3-yl)amino)-2-fluorophenyl)-3′,3′-difluoro-N-(trans-4-((5-fluoro-4-(3-(2-oxo-1,2-dihydropyridin-3-yl)phenyl)pyrimidin-2-yl)amino)cyclohexyl)-[1,4′-bipiperidine]-4-carboxamide]
< 0.5 | O=C1CCC(Nc2ccc(N3CCN([C@H]4CC[C@H](C(=O)N[C@H]5CC[C@H](Nc6ncc(F)c(-c7cccc(-c8ccccc8)c7)n6)CC5)CC4)CC3)c(F)c2)C(=O)N1 (stereo partly drawn) [Compound 604, trans-(1r,4R)—N-((1r,4R)-4-((4-([1,1′-biphenyl]-3-yl)-5-fluoropyrimidin-2-yl)amino)cyclohexyl)-4-(4-(4-((2,6-dioxopiperidin-3-yl)amino)-2-fluorophenyl)piperazin-1-yl)cyclohexane-1-carboxamide]
< 0.5 | O=C1CCC(Nc2ccc(N3CCN([C@H]4CC[C@H](C(=O)N[C@H]5CC[C@H](Nc6ncc(F)c(-c7cccc(N8CCOCC8)c7)n6)CC5)CC4)CC3)c(F)c2)C(=O)N1 (stereo partly drawn) [Compound 605, trans-(1r,4R)-4-(4-(4-((2,6-dioxopiperidin-3-yl)amino)-2-fluorophenyl)piperazin-1-yl)-N-((1r,4R)-4-((5-fluoro-4-(3-morpholinophenyl)pyrimidin-2-yl)amino)cyclohexyl)cyclohexane-1-carboxamide]

Same assay, conditions: read-out: HiBIT-degradation MOLT4 PIP4k2C DC50 (6 hours, marked *); 6 hours of incubation time, rather than 24 hours; MOLT-4, top concentration 10 micromolar

DC50 [µM] | Structure (SMILES)
< 0.5 | O=C1CCC(Nc2ccc(N3CCN(C[C@H]4CC[C@H](CNC(=O)[C@H]5CC[C@H](Nc6ncc(F)c(-c7cccc(N8CCOCC8=O)c7)n6)CC5)CC4)CC3)c(F)c2)C(=O)N1 (stereo partly drawn) [Compound 586, trans-(1r,4R)—N-(((1r,4R)-4-((4-(4-((2,6-dioxopiperidin-3-yl)amino)-2-fluorophenyl)piperazin-1-yl)methyl)cyclohexyl)methyl)-4-((5-fluoro-4-(3-(3-oxomorpholino)phenyl)pyrimidin-2-yl)amino)cyclohexane-1-carboxamide]
